# Assays:
# [1] = Spatial drug imaging by MALDI-MSI (drug distribution in tissues); conditions: 10 mg/kg, 30'; DHB matrix; 12 µm-thick sections, MALDI MSI 12 Tesla FT-ICR, 100 µm spatial resolution; Agar Lab
# PI3K pathway = system: PI3K pathway; design: method as in Wen et al. 2019b; conditions: ref Wen et al. 2019b, cited from earlier work
# CNS metastases = system: CNS metastases; design: method as in Long et al. 2012, Ng et al. 2022; conditions: ref Long et al. 2012, Ng et al. 2022; cited from earlier work
# [2] = design: method as in Mittapalli et al. 2013; conditions: ref Mittapalli et al. 2013; cited from earlier work
# glioblastoma = system: glioblastoma; design: method as in Iorgulescu et al. 2021; conditions: preclinical studies, ref Iorgulescu et al. 2021; cited from earlier work
# [3] = cited from earlier work
# [4] = cited from earlier work; remark: listed apart in the source
# [5] = system: newly diagnosed glioblastoma; design: method as in Gilbert et al. 2014; conditions: patients with newly diagnosed glioblastoma; ref Gilbert et al. 2014; cited from earlier work
# recurrent glioblastoma = conditions: cited from earlier work
molecule,measurement,setting,value
CNCc1ccc(-c2[nH]c3cc(F)cc4c3c2CCNC4=O)cc1 [Rucaparib],Drug detection on brain by MALDI or LESA,[1],Drug not detected on brain by MALDI or LESA
Nc1cc(C(F)(F)F)c(-c2cc(N3CCOCC3)nc(N3CCOCC3)n2)cn1 [buparlisib],inhibition of the PI3K pathway (molecular response),PI3K pathway; pharmacokinetic measures paired with molecular response,not potent enough to effectively inhibit the PI3K pathway
same,unbound tumor-to-plasma ratio,PI3K pathway,high
CC(C)(C)c1nc(-c2cccc(NS(=O)(=O)c3c(F)cccc3F)c2F)c(-c2ccnc(N)n2)s1 [dabrafenib],response in patients with CNS metastases,CNS metastases,clinically significant response rates
same,distribution across an intact BBB,[2],limited distribution across an intact BBB
C[C@@H]1C[C@H]2[C@@H]3CCC4=CC(=O)C=C[C@]4(C)[C@@]3(F)[C@@H](O)C[C@]2(C)[C@@]1(O)C(=O)CO [dexamethasone],effect on clinical benefit of immune checkpoint blockade,glioblastoma,limit the clinical benefit of immune checkpoint blockade in glioblastoma in a dose-dependent manner
CN(Cc1cnc2nc(N)nc(N)c2n1)c1ccc(C(=O)N[C@@H](CCC(=O)O)C(=O)O)cc1 [methotrexate],"therapeutic window, intrathecal treatment","[3]; intrathecal treatment of hematological malignancies, ref Kwong et al. 2009, Clement & Holle 2017",narrow therapeutic window
S=P(N1CC1)(N1CC1)N1CC1 [thiotepa],"Kp,uu (unbound drug levels in blood and cerebrospinal fluid)","[4]; blood vs cerebrospinal fluid, ref Heideman et al. 1989, 1993",~ 1
same,half-life,"[4]; rapidly metabolized, ref Heideman et al. 1989, 1993",less than 2 hours
same,dose-limiting toxicity,[4]; ref Dunkel et al. 1998,myelosuppression
same,apparent brain permeability (Papp),"[4]; ref Heideman et al. 1989, 1993",high
CC[C@]1(O)C[C@H]2CN(CCc3c([nH]c4ccccc34)[C@@](C(=O)OC)(c3cc4c(cc3OC)N(C=O)[C@H]3[C@@](O)(C(=O)OC)[C@H](OC(C)=O)[C@]5(CC)C=CCN6CC[C@]43[C@@H]65)C2)C1 [vincristine],toxicity of inadvertent administration into the CSF,"[3]; ref Dyer 2001, Chotsampancharoen et al. 2016",fatalities due to severe neurotoxicity
bevacizumab,overall survival,[5],no difference
same,delivery of radiolabeled temozolomide as measured by PET imaging,recurrent glioblastoma; in vivo,decreased delivery of radiolabeled temozolomide
same,vascular permeability,recurrent glioblastoma; not told,decrease vascular permeability
